{"source": "ChEMBL document CHEMBL4406802", "about": "“Human disorders associated with inflammation and the evolving role of natural products to overcome” (Eur J Med Chem, 2019)", "key": {"RAW264.7 [1]": {"system": "RAW264.7", "test": "Antiinflammatory activity in mouse RAW264.7 cells assessed as inhibition of LPS-induced nitric oxide production", "format": "functional, cell-based"}, "[2]": {"biological_target": "T1, Prostaglandin G/H synthase 2 (Homo sapiens, UniProt P35354)", "T1 sequence (P35354 whole entry)": "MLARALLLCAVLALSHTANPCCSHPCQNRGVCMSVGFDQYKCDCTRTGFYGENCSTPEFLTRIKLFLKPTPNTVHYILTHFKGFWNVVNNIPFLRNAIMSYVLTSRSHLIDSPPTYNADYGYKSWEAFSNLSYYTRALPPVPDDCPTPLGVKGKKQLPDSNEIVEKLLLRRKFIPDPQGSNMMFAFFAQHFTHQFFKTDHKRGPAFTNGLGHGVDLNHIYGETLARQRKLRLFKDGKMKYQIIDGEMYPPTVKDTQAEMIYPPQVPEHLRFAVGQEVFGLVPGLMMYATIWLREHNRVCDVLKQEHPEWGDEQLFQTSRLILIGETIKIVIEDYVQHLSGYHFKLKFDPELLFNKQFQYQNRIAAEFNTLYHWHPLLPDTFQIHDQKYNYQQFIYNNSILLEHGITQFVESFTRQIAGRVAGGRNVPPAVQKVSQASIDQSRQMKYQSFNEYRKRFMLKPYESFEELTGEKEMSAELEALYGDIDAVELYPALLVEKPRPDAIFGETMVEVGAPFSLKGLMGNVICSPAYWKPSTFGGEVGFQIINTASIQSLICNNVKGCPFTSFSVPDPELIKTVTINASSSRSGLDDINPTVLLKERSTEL", "test": "Inhibition of COX2 (unknown origin)"}, "RAW264.7 [3]": {"system": "RAW264.7", "test": "Antiinflammatory activity in mouse RAW264.7 cells assessed as inhibition of LPS-induced nitric oxide production after 24 hrs by Griess reagent based assay", "format": "functional, cell-based", "settings": "RAW264.7, 24 h"}, "[4]": {"biological_target": "T2, Prostaglandin G/H synthase 2 (Homo sapiens) (UniProt P35354)", "T2 sequence (whole entry)": "T1 sequence (P35354 whole entry)", "test": "Inhibition of human COX2 at 10 uM using arachidonic acid as substrate measured for 300 secs intervals from 3 to 10 secs in presence of hematin by fluorescence assay relative to control"}, "[5]": {"biological_target": "T3, Prostaglandin G/H synthase 2 (Ovis aries, UniProt P79208)", "T3 sequence (P79208 whole entry)": "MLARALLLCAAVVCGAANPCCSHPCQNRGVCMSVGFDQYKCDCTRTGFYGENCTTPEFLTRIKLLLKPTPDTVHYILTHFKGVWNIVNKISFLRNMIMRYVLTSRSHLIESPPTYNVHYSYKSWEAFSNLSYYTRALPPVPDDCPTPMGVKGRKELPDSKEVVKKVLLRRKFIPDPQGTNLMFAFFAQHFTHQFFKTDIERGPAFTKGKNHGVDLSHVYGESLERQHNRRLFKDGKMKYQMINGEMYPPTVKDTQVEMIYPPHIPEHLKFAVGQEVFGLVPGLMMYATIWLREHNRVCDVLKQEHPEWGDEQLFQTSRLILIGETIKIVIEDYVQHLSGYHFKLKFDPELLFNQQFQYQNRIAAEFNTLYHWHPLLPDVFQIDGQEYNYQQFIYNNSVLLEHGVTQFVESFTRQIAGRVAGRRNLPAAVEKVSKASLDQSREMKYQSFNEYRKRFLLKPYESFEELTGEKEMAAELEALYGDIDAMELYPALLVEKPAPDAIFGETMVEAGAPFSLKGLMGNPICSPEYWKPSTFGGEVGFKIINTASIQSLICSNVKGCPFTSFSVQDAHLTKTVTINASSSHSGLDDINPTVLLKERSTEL", "test": "Inhibition of recombinant ovine COX2 using arachidonic acid as substrate preincubated for 15 mins followed by arachidonic acid addition measured after 2 mins by ELISA"}}}
{"smiles": "C=C(C)C(O)Cc1c(O)cc(O)c2c(=O)c(CC=C(C)C)c(-c3ccc(O)cc3O)oc12", "note": "(configuration not stated)", "values": [{"measurement": "IC50", "setting": "RAW264.7 [1]", "result": 6.6, "unit": "µg/mL"}]}
{"smiles": "CC(C)[C@@H]1CC[C@]2(C)[C@@H]3C(C=C4[C@@H]5CC(C)(C)C(=O)C[C@]5(C)CC[C@]42C)OC(=O)CC(O)[C@]31C", "note": "(some centres not stated)", "values": [{"measurement": "IC50", "setting": "[2]", "result": 460, "unit": "µM"}]}
{"smiles": "CC(C)[C@@H]1CC[C@]2(C)[C@@H]3C(C=C4[C@@H]5CC(C)(C)CC[C@]5(C)CC[C@]42C)OC(=O)CC[C@]31C", "note": "(some centres not stated)", "values": [{"measurement": "IC50", "setting": "[2]", "result": 650, "unit": "µM"}]}
{"smiles": "O=C(/C=C/c1ccc(O)cc1O)c1ccc(O)cc1O", "values": [{"measurement": "IC50", "setting": "RAW264.7 [3]", "result": 10.2, "unit": "µg/mL"}]}
{"smiles": "COc1cc(OC)c(C(=O)/C=C/c2ccc(O)cc2)c(OC)c1", "values": [{"measurement": "inhibition", "setting": "[4]", "result": 62.2, "unit": "%"}]}
{"smiles": "CC(C)=CCc1c(-c2ccc(O)cc2O)oc2c(CC=C(C)C)c(O)cc(O)c2c1=O", "note": "[KUWANON C]", "values": [{"measurement": "IC50", "setting": "RAW264.7 [1]", "result": 9.6, "unit": "µg/mL"}]}
{"smiles": "O=c1cc(-c2ccc(O)cc2O)oc2cc(O)cc(O)c12", "note": "[NORARTOCARPETIN]", "values": [{"measurement": "IC50", "setting": "RAW264.7 [1]", "result": 6.1, "unit": "µg/mL"}]}
{"smiles": "CC(C)=CCC1C(=O)c2c(O)cc3c(c2OC1c1ccc(O)cc1O)C=CC(C)(CO)O3", "note": "(configuration not stated)", "values": [{"measurement": "IC50", "setting": "RAW264.7 [1]", "result": 5.2, "unit": "µg/mL"}]}
{"smiles": "C=C(C)[C@@H]1CC[C@]2(C(=O)O)CC[C@]3(C)[C@H](CC[C@@H]4[C@@]5(C)CC[C@H](O)C(C)(C)[C@@H]5CC[C@]43C)[C@@H]12", "note": "[BETULINIC ACID]", "values": [{"measurement": "IC50", "setting": "RAW264.7 [1]", "result": 42.5, "unit": "µM"}]}
{"smiles": "C=C(C)[C@H](O)CC/C(C)=C/Cc1c(O)cc2oc(-c3ccc(O)cc3)cc(=O)c2c1O", "values": [{"measurement": "IC50", "setting": "RAW264.7 [3]", "result": 3.5, "unit": "µg/mL"}]}
{"smiles": "C[C@@H]1O[C@@H](O[C@@H]2[C@@H](O)[C@H](OCCc3ccc(O)c(O)c3)O[C@H](CO)[C@H]2OC(=O)/C=C/c2ccc(O)c(O)c2)[C@H](O)[C@H](O)[C@H]1O", "note": "[ACETOSIDE]", "values": [{"measurement": "IC50", "setting": "[5]", "result": 11.3, "unit": "µM"}]}
{"smiles": "CC(C)=CCc1c(-c2ccc(O)cc2O)oc2cc(O)cc(O)c2c1=O", "note": "[ALBANIN A]", "values": [{"measurement": "IC50", "setting": "RAW264.7 [1]", "result": 9.2, "unit": "µg/mL"}]}
{"smiles": "O=C1CC(c2ccc(O)cc2O)Oc2cc(O)ccc21", "note": "(configuration not stated)", "values": [{"measurement": "IC50", "setting": "RAW264.7 [1]", "result": 10.3, "unit": "µg/mL"}]}
{"smiles": "CC[C@H](CC[C@@H](C)[C@H]1CC[C@H]2[C@@H]3C[C@H](O)C4=CC(=O)CC[C@]4(C)[C@H]3CC[C@]12C)C(C)C", "values": [{"measurement": "IC50", "setting": "RAW264.7 [1]", "result": 86.7, "unit": "µM"}]}
{"smiles": "O=C1c2c(O)cc(O)cc2OCC1Cc1ccc(O)cc1", "note": "(configuration not stated)", "values": [{"measurement": "inhibition", "setting": "[4]", "result": 13.3, "unit": "%"}]}
{"smiles": "C=C(C)C(O)Cc1c(-c2ccc(O)cc2O)oc2c(CC=C(C)C)c(O)cc(O)c2c1=O", "note": "(configuration not stated)", "values": [{"measurement": "IC50", "setting": "RAW264.7 [1]", "result": 7.3, "unit": "µg/mL"}]}
{"smiles": "CC(C)=CCC/C(C)=C/Cc1c(O)cc2oc(-c3ccc(O)cc3)cc(=O)c2c1O", "values": [{"measurement": "IC50", "setting": "RAW264.7 [1]", "result": 4.1, "unit": "µg/mL"}]}
{"smiles": "O=C(/C=C/c1ccc(O)cc1)c1ccc(O)cc1O", "note": "[ISOLIQUIRITIGENIN]", "values": [{"measurement": "IC50", "setting": "RAW264.7 [3]", "result": 3.4, "unit": "µg/mL"}]}
{"smiles": "CC1(C)C=Cc2c(cc(O)cc2-c2cc3ccc(O)cc3o2)O1", "values": [{"measurement": "IC50", "setting": "RAW264.7 [3]", "result": 18.5, "unit": "µg/mL"}]}
{"smiles": "CC(C)=CCc1c(O)ccc(C(=O)[C@H]2[C@@H](c3cc(O)cc4oc(-c5ccc(O)cc5O)cc34)C=C(C)C[C@@H]2c2ccc(O)cc2O)c1O", "values": [{"measurement": "IC50", "setting": "RAW264.7 [1]", "result": 12.8, "unit": "µg/mL"}]}
{"smiles": "COc1ccc(CC2(O)COc3cc(O)cc(O)c3C2=O)cc1", "note": "(configuration not stated)", "values": [{"measurement": "inhibition", "setting": "[4]", "result": 71.4, "unit": "%"}]}
{"smiles": "COc1cc(O[C@@H]2O[C@H](CO)[C@@H](O)[C@H](O)[C@H]2O[C@@H]2OC[C@](O)(COC(=O)c3ccc(O)c(O)c3)[C@H]2O)ccc1O", "values": [{"measurement": "IC50", "setting": "[5]", "result": 29.2, "unit": "µM"}]}
{"smiles": "Oc1ccc(/C=C/c2cc(O)cc(O)c2)cc1", "note": "[RESVERATROL]", "values": [{"measurement": "IC50", "setting": "RAW264.7 [3]", "result": 24.1, "unit": "µg/mL"}]}
{"smiles": "COc1cc(OC)c(C(=O)CCc2ccc(O)cc2)c(OC)c1", "values": [{"measurement": "inhibition", "setting": "[4]", "result": 54.4, "unit": "%"}]}
{"smiles": "COc1cc(O)cc(-c2cc3cc(OC)c(O)cc3o2)c1", "values": [{"measurement": "IC50", "setting": "RAW264.7 [3]", "result": 7.5, "unit": "µg/mL"}]}
{"smiles": "CC(C)=CCc1c(O)ccc(C(=O)/C=C/c2ccc(O)c([C@H]3C=C(C)CC(c4ccc(O)cc4O)[C@H]3C(=O)c3ccc(O)cc3O)c2O)c1O", "note": "(some centres not stated)", "values": [{"measurement": "IC50", "setting": "RAW264.7 [3]", "result": 8.5, "unit": "µg/mL"}]}
{"smiles": "C=C(C)C(=O)Cc1c(-c2ccc(O)cc2O)oc2c(CC=C(C)C)c(O)cc(O)c2c1=O", "values": [{"measurement": "IC50", "setting": "RAW264.7 [1]", "result": 4.3, "unit": "µg/mL"}]}
